Literature values, collected in US20240307311A1, “STARCH BASED PRINTABLE MATERIALS” (ROQUETTE FRERES, priority 2021, published 2024).

solubility in water (descriptive class)	SMILES
freely soluble in water	Cn1c(=O)c2c(ncn2CC(O)CO)n(C)c1=O (centres unmarked) [diprophylline]
practically insoluble in water	CCC(C)n1ncn(-c2ccc(N3CCN(c4ccc(OCC5COC(Cn6cncn6)(c6ccc(Cl)cc6Cl)O5)cc4)CC3)cc2)c1=O (centres unmarked) [itraconazole]
